Tested on: Sclerotinia sclerotiorum
Assay: Controlling test against Sclerotinia sclerotiorum on cucumber by foliage spraying (Test Example 1)
Format: in vivo
Settings: single compound, 12° C., high humidity, 6 days
Experimental: A sand loam was charged into a plastic pot, and cucumber (Sagamihanjiro) was seeded, and grown in a greenhouse for 12 days. A flowable of the compound I, and a flowable comprising any one of the compound II-i, the compound II-ii, the compound III, the compound IV, the compound V and the compound VI were diluted with water separately, and they were tank-mixed to prepare a tank mix solution having each predetermined concentration. The tank mix solution was subjected to foliage spraying so that it was sufficiently adhered to a leaf surface of the cucumber. After spraying, the plant was air-dried, and a PDA medium containing hyphae of Sclerotinia sclerotiorum was placed on the cucumber leaf surface. After seeding, this was placed under 12° C. and the high humidity for 6 days, the controlling effect was investigated. Separately, for comparison, each of the flowables was diluted with water to prepare a water-diluted solution of compounds I to VI having the predetermined concentration, and the similar controlling test was carried out. Further, for calculating a effective value, an onset area rate (ratio of onset area occupied in leaf area examined) in each treatment group was determined. The effective value was calculated by the Equation 1. […] A: Onset area rate of non-treated group B: Onset area rate of treated group In general, an effective value expected in treatment by mixing given two kinds of active ingredient compounds, i.e., an expected effective value is calculated by a Colby calculation equation of the Equation 2. E=X+Y−(X×Y)/100 “Equation 2” X: Effective value obtained by treatment with M ppm of the compound I Y: Effective value obtained by treatment with N ppm of the compound II, III or IV E: Effective value expected in treatment with M ppm of the compound I and N ppm of the compound II, III or IV (expected effective value) In addition, a synergistic effect was shown herein by a value calculated by the following Equation 3.

Row | Compound | Actual effective value (0.2 ppm) [%] | Actual effective value (0.8 ppm) [%] | Actual effective value (3.1 ppm) [%]
1 | CNC(=O)C(OC)c1ccccc1COc1cc(C)ccc1C (racemic) [Compound II-ii] | 4 | 31 | –
2 | CNC(=O)[C@H](OC)c1ccccc1COc1cc(C)ccc1C [Compound II-i] | 14 | 55 | –
3 | CNC(=O)/C(=N/OC)c1ccccc1COc1cc(C)ccc1C [Compound III, (αE)-2-[(2,5-dimethylphenoxy)methyl]-α-(methoxyimino)-N-methylbenzeneacetamino, reference compound] | 9 | – | –
4 | CO/N=C(/C(=O)OC)c1ccccc1CO/N=C(\C)c1cccc(C(F)(F)F)c1 [Compound IV, methyl (E)-methoxyimino-{(E)-α-[1-(α,α,α-trifluoro-m-tolyl]ethylideneaminooxy)-o-tolyl)acetate, reference compound] | 28 | – | –
5 | C=CCSC(=O)n1c(N)c(-c2ccccc2C)c(=O)n1C(C)C [Compound I] | – | – | 58
6 | CO/C=C(/C(=O)OC)c1ccccc1Oc1cc(Oc2ccccc2C#N)ncn1 [Compound V, methyl (E)-2-{2-[6-(2-cyanophenoxy)pyrimidin-4-yloxy]phenyl}-3-methoxyacrylate, reference compound] | 10 | – | –
7 | COC(=O)N(OC)c1ccccc1COc1ccn(-c2ccc(Cl)cc2)n1 [Compound VI, methyl 2-[[1-(4-chlorophenyl)-1H-pyrazol-3-yloxymethyl]phenyl](N-methoxy)carbamate, reference compound] | 29 | – | –
